Key:
[1] = Through-cure (thumb twist test), as sensitizer; details: 0.5% thioxanthone derivative, 3% Esacure A 198, 3% Esacure 1001, cyan ink, 3 μm on coated cardboard, Hg lamp 120 W/cm
Method: (§1) Evaluation of “Through-Cure”
(§2) The “through cure” test evaluates the degree of cross-linking of the deeper layers of the formulate (film) spread on the substrate. The film is considered completely crosslinked when it is not detached from the substrate or damaged by the “thumb twist test”. The test is carried out at various speeds of exposure to UV source. The higher the speed the higher the reactivity of the system.
(§3) The products described in the examples were tested both as photoinitiators and sensitizers. For the evaluation as photoinitiator the following formulation is employed (by weight): 3% of derivative of thioxanthone of formula I, 3% of Esacure A 198, up to 100% with cyan ink for off-set printing. For the evaluation as sensitizers the formulation is composed as follows (by weight): 0.5% of derivative of thioxanthone of formula I, 3% of Esacure A 198, 3% of Esacure 1001, up to 100% with cyan ink for off-set printing.
(§4) The resulting mixtures are milled with a three cylinders mill (laboratory scale) and applied on a coated cardboard with a thickness of 3 μm by means of film coater (RK Print Coater Instrument Ltd), then exposed at different speed to a mercury vapors lamp at high pressure 120 W/cm.
(§5) ITX, in the same amounts, is chosen as reference.

[2] = FT-IR degree of polymerization in a pigmented composition (as sensitizer of Esacure 1001); details: 0.5% sensitizer, 3% Esacure 1001, 3% Esacure A 198, cyan ink, 3 μm film
Method: The compounds described in the examples were evaluated also as sensitizer in a pigmented composition as described below.
Pigmented photopolymerizable compositions are prepared by mixing 3% by weight of both Esacure 1001 and coinitiator Esacure A 198 (both commercialized by Lamberti S.p.A.), 0.5% by weight of derivatives of thioxanthone of the Examples listed in Table 1 and up to 100% by weight of a cyan ink for off-set inking. ITX is used as reference sensitizer.
The photopolymerizable compositions are milled with a three cylinders mill (laboratory scale) in order to homogenize the mix and applied with a thickness of 3 μm on a soft polyethylene substrate by means of film coater (RK Print Coater Instrument Ltd).
The sample, placed in the sample lodgment of a FT-IR (FT-IR 430-Jasco), is exposed to a Mercury/Xenon Vapors light source at high pressure to 120 W/cm (L8868 Light-cure, Hamamatsu) set at a distance of 8 cm from the sample with an angle of 30°.
IR spectra were acquired at constant time during the photopolymerization and the reduction over the time of the area of the peak at 1408 cm^−1 assigned to the acrylic double bond is determined with the help of a IR software (Perkin Elmer, Spectrum ONE v. 2.0).
This allows to quantify the degree of polymerization over time and therefore the efficiency of the photoinitiator.

[3] = Photo DSC reactivity in tripropylene glycol diacrylate; details: for Peak height / ΔH (peak area): 0.1% w/w compound, 0.1% w/w EDB, LED 400 nm, 24.3 mW/cm^2; for ΔH of polymerization of isomer 3 relative to isomer 1: Photo DSC peak area; for ΔH of polymerization of isomer 3 relative to isomer 1 / Reactivity of isomer 3 relative to isomer 1: isomer 3 versus isomer 1; for Reactivity of isomer 3 relative to isomer 1: Photo DSC peak height
From the text: Comparison of the reactivity of the 1 and 3 derivatives of thioxanthone by means of Photo DSC.
The compound of Example 1 (dodecyl 7-methyl-9-oxo-9H-thioxanthene-3-carboxylate) and the compound of Example 8 (dodecyl 7-methyl-9-oxo-9H-thioxanthene-1-carboxylate, comparative) were formulated and evaluated by PhotoDSC.
The compound of Example 5 (N,N-diisobutyl-7-methyl-9-oxo-9H-thioxanthene-3-carboxamide) and the compound of Example 7 (N,N-diisobutyl-7-methyl-9-oxo-9H-thioxanthene-1-carboxamide, comparative) were also formulated and compared by PhotoDSC.
The formulations were prepared dissolving in tripropylene glycol diacrylate the compounds described in the Examples 1, 8, 5 and 7 at a concentration of 0.1% w/w and EDB (Ethyl 4-dimethylamino-benzoate) at a concentration of 0.1% w/w.
About 1 mg of formulation (exactly weighted) was kept into a DSC aluminum panel and analyzed by a Mettler DSC1 calorimeter equipped with a 400 nm LED with a power of 450 mW. The LED was set in order to irradiate the formulation with an intensity of 24.3 mW/cm^2.
During the exposition to LED at 400 nm the heat developed from the polymerization of formulations prepared with the compounds described in the Examples 1, 8, 5 and 7 was recorded as peak height and peak area (ΔH). The peak height is proportional to the rate of polymerization: higher is the peak—faster is the polymerization.

[4] = Through-cure (thumb twist test), as photoinitiator; details: 3% thioxanthone derivative, 3% Esacure A 198, cyan ink, 3 μm on coated cardboard, Hg lamp 120 W/cm
Method: as §1, §2, §3, §4, §5

[5] = FT-IR degree of polymerization in a pigmented photopolymerizable composition (as photoinitiator); details: 3% photoinitiator, 3% Esacure A198, cyan ink, 3 μm film, Hg/Xe lamp 120 W/cm
Method: Evaluation of the Derivatives of Thioxanthone in a Pigmented Photopolymerizable Composition by Means of FT-IR.
Pigmented photopolymerizable compositions are prepared by mixing 3% by weight of both the photoinitiators of formula I (Examples 1-6) and the coinitiator Esacure A198 (bis-N,N-[4-dimethyl aminobenzoyl)oxyethylen-1-yl]-methylamine), commercialized by Lamberti S.p.A, and up to 100% by weight of a cyan ink for off-set inking.
Isopropyl thioxanthone (ITX) is chosen as reference photoinitiator.
The photopolymerizable compositions are milled with a three cylinders mill (laboratory scale) in order to homogenize the mix and applied with a thickness of 3 μm on a soft polyethylene substrate by means of a film coater (RK Print Coater Instrument Ltd).
The sample, placed in the sample lodgment of a FT-IR (FT-IR 430-Jasco), is exposed to a Mercury/Xenon Vapors light source at high pressure to 120 W/cm (L8868 Light-cure, Hamamatsu) set at a distance of 8 cm from the sample and at an angle of 30°.
IR spectra are acquired at constant time intervals during the photopolymerization and the reduction over time of the peak area at 1408 cm^−1 assigned to the acrylic double bond was determined by IR software (Perkin Elmer, Spectrum ONE v. 2.0). This allows to quantify the degree of polymerization over the time and therefore the efficiency of the photoinitiator.

[6] = Formulability through solubility in methylene chloride; details: room temperature, stirring
Method: 10 g of the thioxanthone derivatives under investigation are weighed and suspended in the same amount of solvent; the mixture is maintained under stirring at room temperature.
After 2 min the clearness of the solution is evaluated: if the sample is not dissolved further aliquots of solvent are added, keeping the mixture under stirring for two min after each addition until complete solubilization.

Row | Structure (SMILES) | Through-cure (sensitizer) [1] | % degree of polymerization after 1 sec [2] | % degree of polymerization after 2 sec [2] | % degree of polymerization after 5 sec [2] | Peak height [3] [W/g] | ΔH (peak area) [3] [J/g] | ΔH of polymerization of isomer 3 relative to isomer 1 [3] | Reactivity of isomer 3 relative to isomer 1 [3] | Through-cure (photoinitiator) [4] | % degree of polymerization after 1 sec [5] | % degree of polymerization after 2 sec [5] | % degree of polymerization after 5 sec [5] | Solubility [6]
1 | CCCCCCCCCCCCOC(=O)c1ccc2c(=O)c3cc(C)ccc3sc2c1 [Example 1, dodecyl-7-methyl-9-oxo-9H-thioxanthene-3-carboxylate] | 53 m/min | 17.8% | 29.9% | 40.7% | 58.9 | 266.4 | 1.2 | about 1.5 times | 85 m/min | 19.6% | 36.1% | 47.2% | 33%
2 | CCCCCOC(=O)c1ccc2c(=O)c3cc(C)ccc3sc2c1 [Example 2, pentyl 7-methyl-9-oxo-9H-thioxanthene-3-carboxylate] | Not reactive | Not reactive | Not reactive | Not reactive | – | – | – | – | 5 m/min | 2.5% | 3.1% | 7.2% | 33%
3 | COC(=O)c1ccc2c(=O)c3cc(C)ccc3sc2c1 [Example 3, methyl 7-methyl-9-oxo-9H-thioxanthene-3-carboxylate] | Insoluble | Insoluble | Insoluble | Insoluble | – | – | – | – | Insoluble | Insoluble | Insoluble | Insoluble | insoluble
4 | C=CCOC(=O)c1ccc2c(=O)c3cc(C)ccc3sc2c1 [Example 4, allyl 7-methyl-9-oxo-9H-thioxanthene-3-carboxylate] | 60 m/min | 20.6% | 33.2% | 43.2% | – | – | – | – | 70 m/min | 5.9% | 18.3% | 35.3% | 5%
5 | Cc1ccc2sc3cc(C(=O)N(CC(C)C)CC(C)C)ccc3c(=O)c2c1 [Example 5, N,N-disobutyl 7-methyl-9-oxo-9H-thioxanthene-3-carboxamide] | 60 m/min | 22.3% | 36.7% | 45.8% | 39.0 | 224.8 | about 2 | 3.5 times | 90 m/min | 18.0% | 33.7% | 45.9% | 50%
6 | Cc1ccc2sc3cc(C(=O)N4CCN(C)CC4)ccc3c(=O)c2c1 [Example 6, 4-methyl-piperazinyl 7-methyl-9-oxo-9H-thioxanthene-3-carboxamide] | – | – | – | – | – | – | – | – | – | – | – | – | 5%
7 | Cc1ccc2sc3cccc(C(=O)N(CC(C)C)CC(C)C)c3c(=O)c2c1 [Example 7, N,N-diisobutyl-7-methyl-9-oxo-9H-thioxanthene-1-carboxamide] | – | – | – | – | 11.1 | 111.4 | – | – | – | – | – | – | –
8 | CCCCCCCCCCCCOC(=O)c1cccc2sc3ccc(C)cc3c(=O)c12 [Example 8, dodecyl 7-methyl-9-oxo-9H-thioxanthene-1-carboxylate] | – | – | – | – | 38.4 | 208.5 | – | – | – | – | – | – | –
9 | CC(C)c1ccc2sc3ccccc3c(=O)c2c1 [ITX, isopropyl thioxanthone, reference compound] | 60 m/min | 19.6% | 31.4% | 40.9% | – | – | – | – | 95 m/min | 10.0% | 18.9% | 33.0% | –

Reference: patent publication US8933142B2, “Low-extractable thioxanthones” (Lamberti Spa, priority 2010, dated 2015)
